Assay: Light resistance of PMMA polymer film (residual amount after metal halide lamp irradiation)
Assay type: physicochemical
Conditions: 0.2 mass % compound in PMMA film, 50-μm thick; metal halide lamp (about 290 nm or less cut), 90 mW/cm^2, 63° C., humidity 50%, irradiation for 600 hours; absorbance at maximum absorption wavelength
Protocol: A binder solution was prepared by dissolving 22 mass % of a PMMA resin (“DIANAL BR-80”, trade name, produced by Mitsubishi Rayon Co., Ltd.) in methylene chloride. […] The coating solution was applied on glass as a base material by means of a 200 μm blade and dried at 100° C. for 10 minutes to form a 50-μm thick coating, whereby a film was produced. […] The residual amount was calculated according to the following formula: Residual amount (%)=100×(absorbance after irradiation)/(absorbance before irradiation)
Incidentally, the absorbance is a value measured at the maximum absorption wavelength of each compound.

Residual Amount (%)	SMILES
44	CCCCCCOc1ccc(-c2nc(-c3ccccc3)nc(-c3ccccc3)n2)c(O)c1 [Comparative Compound A]
14	CCCCCCCCOc1ccc(-c2nc(-c3ccc(C)cc3C)nc(-c3ccc(C)cc3C)n2)c(O)c1 [Comparative Compound B]
